Data reported in US20250136606A1, “MODULATORS OF TRPML, THEIR COMPOSITIONS AND METHODS OF USE” (Caraway Therapeutics, Inc., priority 2021, published 2025).
Like-named read-outs stand apart in the source and are kept apart here.

How the values were obtained:
Format in all cases: cell-based
TRPML2 = biological target: T1, TRPML2 (Homo sapiens, UniProt Q8IZK6); experiment: Fluorescent TRPML2 assay (performed as for TRPML1, substituting the TRPML2 subtype)
T1 construct: expressed in transfected cells
T1 sequence (Q8IZK6 1-566): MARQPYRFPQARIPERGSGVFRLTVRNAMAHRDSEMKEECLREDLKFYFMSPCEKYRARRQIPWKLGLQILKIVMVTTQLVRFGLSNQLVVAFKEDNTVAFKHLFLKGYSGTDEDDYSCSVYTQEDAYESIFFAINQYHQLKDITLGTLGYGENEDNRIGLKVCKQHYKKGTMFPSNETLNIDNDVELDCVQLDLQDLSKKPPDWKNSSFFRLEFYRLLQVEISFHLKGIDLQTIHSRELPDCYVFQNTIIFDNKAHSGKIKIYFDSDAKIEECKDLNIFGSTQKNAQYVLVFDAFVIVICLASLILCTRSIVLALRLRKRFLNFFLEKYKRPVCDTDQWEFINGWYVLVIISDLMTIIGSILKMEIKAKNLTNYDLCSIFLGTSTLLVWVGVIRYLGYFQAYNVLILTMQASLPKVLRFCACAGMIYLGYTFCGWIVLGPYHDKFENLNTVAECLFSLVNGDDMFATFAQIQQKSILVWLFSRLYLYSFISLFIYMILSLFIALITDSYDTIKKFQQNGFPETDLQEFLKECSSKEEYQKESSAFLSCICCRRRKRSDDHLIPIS
In short: (§1)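 Compound series (final 6 nM-20 μM, half-log, triplicate) were added to Fluo4-AM-loaded HEK-293 Trex cells in 10 mM calcium Ringer's, expressing the human TRPML subtype after doxycycline 0.5 ug/mL induction. Percent activity versus positive/negative controls from 480/540 nm fluorescence; EC50 by non-linear regression.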

TRPML3 = biological target: T2, TRPML3 (Homo sapiens, UniProt Q8TDD5); experiment: Fluorescent TRPML3 assay (performed as for TRPML1, substituting the TRPML3 subtype)
T2 construct: expressed in transfected cells
T2 sequence (Q8TDD5 1-553): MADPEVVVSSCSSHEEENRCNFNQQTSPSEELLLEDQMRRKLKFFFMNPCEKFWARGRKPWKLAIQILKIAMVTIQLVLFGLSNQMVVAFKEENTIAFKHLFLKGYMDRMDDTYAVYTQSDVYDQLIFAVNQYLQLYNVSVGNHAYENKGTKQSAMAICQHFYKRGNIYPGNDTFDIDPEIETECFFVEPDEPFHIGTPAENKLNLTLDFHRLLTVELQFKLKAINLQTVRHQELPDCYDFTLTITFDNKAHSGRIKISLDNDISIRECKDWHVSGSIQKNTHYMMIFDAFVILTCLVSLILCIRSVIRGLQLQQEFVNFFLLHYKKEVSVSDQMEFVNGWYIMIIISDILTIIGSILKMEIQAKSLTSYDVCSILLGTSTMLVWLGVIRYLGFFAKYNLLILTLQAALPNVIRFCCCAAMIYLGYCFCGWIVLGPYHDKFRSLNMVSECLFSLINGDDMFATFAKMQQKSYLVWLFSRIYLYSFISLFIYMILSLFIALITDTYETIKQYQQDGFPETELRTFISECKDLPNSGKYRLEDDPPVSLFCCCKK
In short: as §1

TRPML1 = TRPML1 (Homo sapiens, UniProt Q9GZU1); experiment: Fluorescent TRPML1 assay (Fluo4-AM calcium fluorescence in doxycycline-induced HEK-293 Trex cells)
In short: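 HEK-293 Trex cells stably carrying human TRPML1 (surface-trafficking mutant) were induced overnight with 0.5 ug/mL doxycycline, loaded with 1 micromolar Fluo4-AM, and suspended in Ringer's with 10 mM calcium. Compounds at 20 micromolar to 6 nanomolar final, half-log steps, triplicate; fluorescence 480/540 nm gave percent activity versus controls and EC50 by non-linear regression.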

Chain of TRPML1 (Q9GZU1 whole entry L15A/L16A/L577A/L578A, form open): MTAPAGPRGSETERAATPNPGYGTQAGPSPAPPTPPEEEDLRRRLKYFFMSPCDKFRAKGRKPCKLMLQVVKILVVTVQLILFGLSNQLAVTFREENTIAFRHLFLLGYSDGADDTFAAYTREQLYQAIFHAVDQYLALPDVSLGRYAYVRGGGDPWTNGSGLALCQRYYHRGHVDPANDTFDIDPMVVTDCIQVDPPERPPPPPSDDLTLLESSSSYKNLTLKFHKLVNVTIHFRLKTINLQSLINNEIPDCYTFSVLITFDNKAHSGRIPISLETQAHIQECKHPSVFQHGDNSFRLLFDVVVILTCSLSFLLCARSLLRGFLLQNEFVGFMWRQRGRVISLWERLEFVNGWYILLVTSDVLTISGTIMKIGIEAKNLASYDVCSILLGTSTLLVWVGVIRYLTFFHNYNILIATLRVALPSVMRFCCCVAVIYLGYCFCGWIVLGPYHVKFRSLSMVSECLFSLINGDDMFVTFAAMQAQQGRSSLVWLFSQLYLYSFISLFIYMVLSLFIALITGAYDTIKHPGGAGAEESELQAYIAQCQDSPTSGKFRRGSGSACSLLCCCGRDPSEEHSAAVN

EC50 (TRPML2; fluorescent calcium assay)	EC50 (TRPML3; fluorescent calcium assay)	EC50 (TRPML1; fluorescent calcium assay)	EC50 (TRPML2)	EC50 (TRPML3)	EC50 (TRPML1)	SMILES
0.1 to 0.5 µM	0.1 to 0.5 µM	0.1 to 0.5 µM				C[C@@H]1CN(C(=O)OC(C)(C)C)CCN1c1ncnc2c1c(C1CC1)cn2-c1cccc(OC(F)F)c1 [Compound 197, tert-butyl (R)-4-(5-cyclopropyl-7-(3-(difluoromethoxy)phenyl)-7H-pyrrolo[2,3-d]pyrimidin-4-yl)-3-methylpiperazine-1-carboxylate]
0.1 to 0.5 µM	< 0.1 µM	< 0.1 µM				C[C@H]1CN(C(=O)OC(C)(C)C(F)(F)F)CCN1c1ncnc2c1c(C1CCC1)cn2-c1cc(C#N)ccn1 [Compound 436, 1,1,1-trifluoro-2-methylpropan-2-yl(S)-4-(7-(4-cyanopyridin-2-yl)-5-cyclobutyl-7H-pyrrolo[2,3-d]pyrimidin-4-yl)-3-methylpiperazine-1-carboxylate]
> 2 µM	> 2 µM	> 2 µM				C[C@H]1CN(C(=O)OC(C)(C)C)CCN1c1ncnc2c1c(C1COC1)cn2-c1cccc(F)c1 [Compound 474, tert-butyl (S)-4-(7-(3-fluorophenyl)-5-(oxetan-3-yl)-7H-pyrrolo[2,3-d]pyrimidin-4-yl)-3-methylpiperazine-1-carboxylate]
< 0.1 µM	< 0.1 µM	< 0.1 µM				C[C@H]1CN(C(=O)OC(C)(C)C)CCN1c1ncnc2c1c(N1CCC(F)(F)C1)cn2-c1cccc(Cl)c1 [Compound 308, tert-butyl (S)-4-(7-(3-chlorophenyl)-5-(3,3-difluoropyrrolidin-1-yl)-7H-pyrrolo[2,3-d]pyrimidin-4-yl)-3-methylpiperazine-1-carboxylate]
			> 2 µM	< 0.1 µM	0.1 to 0.5 µM	C[C@@H]1CN(c2ncnc3c2c(C2CC2)cn3-c2cccc(Cl)c2)[C@@H](C)CN1C(=O)OC1(C)CC1 [Compound 654, 1-methylcyclopropyl (2R,5S)-4-(7-(3-chlorophenyl)-5-cyclopropyl-7H-pyrrolo[2,3-d]pyrimidin-4-yl)-2,5-dimethylpiperazine-1-carboxylate]
			0.5 to 2 µM	0.1 to 0.5 µM	0.1 to 0.5 µM	C[C@H]1CN(C(=O)OC2(C)CC2)CCN1c1ncnc2c1c(C(F)(F)F)cn2-c1cccc(Cl)c1 [Compound 660, 1-methylcyclopropyl (S)-4-(7-(3-chlorophenyl)-5-(trifluoromethyl)-7H-pyrrolo[2,3-d]pyrimidin-4-yl)-3-methylpiperazine-1-carboxylate]
0.5 to 2 µM	< 0.1 µM	< 0.1 µM				C[C@H]1CN(C(=O)OCC(F)(F)F)CCN1c1ncnc2c1c(-c1ccccc1)cn2-c1cc(C#N)ccn1 [Compound 371, 2,2,2-trifluoroethyl (S)-4-(7-(4-cyanopyridin-2-yl)-5-phenyl-7H-pyrrolo[2,3-d]pyrimidin-4-yl)-3-methylpiperazine-1-carboxylate]
			< 0.1 µM	< 0.1 µM	< 0.1 µM	Cc1cn(-c2ccc(F)cc2)c2ncnc(N3CCN(C(=O)OC(C)(C)C)C[C@@H]3C)c12 [Compound 692, tert-butyl (S)-4-(7-(4-fluorophenyl)-5-methyl-7H-pyrrolo[2,3-d]pyrimidin-4-yl)-3-methylpiperazine-1-carboxylate]

The remaining lines, values behind:

SMILES	EC50 (TRPML2; fluorescent calcium assay)	EC50 (TRPML3; fluorescent calcium assay)	EC50 (TRPML1; fluorescent calcium assay)	EC50 (TRPML2)	EC50 (TRPML3)	EC50 (TRPML1)
C[C@@H]1CN(c2ncnc3c2c(N2CCCC2=O)cn3-c2cc(F)c(F)c(F)c2)CCN1C(=O)OC(C)(C)C [Compound 313, tert-butyl (R)-2-methyl-4-(5-(2-oxopyrrolidin-1-yl)-7-(3,4,5-trifluorophenyl)-7H-pyrrolo[2,3-d]pyrimidin-4-yl)piperazine-1-carboxylate]	> 2 µM	0.5 to 2 µM	> 2 µM			
C[C@@H]1CN(c2ncnc3c2c(C(C)(C)C)cn3-c2cc(C#N)ccn2)[C@@H](C)CN1C(=O)OC(C)(C)C [Compound 525, tert-butyl (2R,5S)-4-(5-(tert-butyl)-7-(4-cyanopyridin-2-yl)-7H-pyrrolo[2,3-d]pyrimidin-4-yl)-2,5-dimethylpiperazine-1-carboxylate]				< 0.1 µM	< 0.1 µM	< 0.1 µM
C[C@@H]1CN(c2ncnc3c2c(-c2ccncc2)cn3-c2cc(F)cc(Cl)c2)CCN1C(=O)OC(C)(C)C [Compound 238, tert-butyl (R)-4-(7-(3-chloro-5-fluorophenyl)-5-(pyridin-4-yl)-7H-pyrrolo[2,3-d]pyrimidin-4-yl)-2-methylpiperazine-1-carboxylate]	0.5 to 2 µM	0.1 to 0.5 µM	< 0.1 µM			
C=CCOC(=O)N(CCC)c1cn(-c2cc(Cl)ccn2)c2ncnc(N3C[C@@H](C)N(C(=O)OC(C)(C)C)C[C@@H]3C)c12 [Compound 500, tert-butyl (2R,5S)-4-(5-(((allyloxy)carbonyl)(propyl)amino)-7-(4-chloropyridin-2-yl)-7H-pyrrolo[2,3-d]pyrimidin-4-yl)-2,5-dimethylpiperazine-1-carboxylate]				0.5 to 2 µM	0.1 to 0.5 µM	0.1 to 0.5 µM
Cc1nccnc1-c1cn(-c2cc(C#N)ccn2)c2ncnc(N3C[C@@H](C)N(C(=O)OC(C)(C)C)C[C@@H]3C)c12 [Compound 458, tert-butyl (2R,5S)-4-(7-(4-cyanopyridin-2-yl)-5-(3-methylpyrazin-2-yl)-7H-pyrrolo[2,3-d]pyrimidin-4-yl)-2,5-dimethylpiperazine-1-carboxylate]	0.1 to 0.5 µM	0.1 to 0.5 µM	< 0.1 µM			
CC(C)(CF)OC(=O)N1CCN(c2ncnc3c2c(-c2ccccc2F)cn3-c2cccnc2)CC1 [Compound 172, 1-fluoro-2-methylpropan-2-yl 4-(5-(2-fluorophenyl)-7-(pyridin-3-yl)-7H-pyrrolo[2,3-d]pyrimidin-4-yl)piperazine-1-carboxylate]	> 2 µM	0.5 to 2 µM	0.5 to 2 µM			
C[C@H]1CN(C(=O)OC(C)(C)C)CCN1c1nccc2c1c(C1CCC1)cn2-c1cccc(F)c1 [Compound 706, tert-butyl (S)-4-(3-cyclobutyl-1-(3-fluorophenyl)-1H-pyrrolo[3,2-c]pyridin-4-yl)-3-methylpiperazine-1-carboxylate]				0.5 to 2 µM	0.1 to 0.5 µM	0.1 to 0.5 µM
Cc1cn(-c2cc(C#N)ccn2)c2ccnc(N3C[C@@H](C)N(C(=O)OC(C)(C)C)C[C@@H]3C)c12 [Compound 705, tert-butyl (2R,5S)-4-(1-(4-cyanopyridin-2-yl)-3-methyl-1H-pyrrolo[3,2-c]pyridin-4-yl)-2,5-dimethylpiperazine-1-carboxylate]				0.5 to 2 µM	< 0.1 µM	< 0.1 µM
C[C@@H]1CN(c2ncnc3c2c(-c2ccccc2F)cn3-c2cncc(C#N)c2)[C@@H](C)CN1C(=O)OC(C)(C)C [Compound 650, tert-butyl (2R,5S)-4-(7-(5-cyanopyridin-3-yl)-5-(2-fluorophenyl)-7H-pyrrolo[2,3-d]pyrimidin-4-yl)-2,5-dimethylpiperazine-1-carboxylate]				< 0.1 µM	< 0.1 µM	< 0.1 µM
C[C@H]1CN(C(=O)OC(C)(C)C)CCN1c1ncnc2c1c(C1CC1)cn2-c1cc(C#N)n(C)n1 [Compound 413, tert-butyl (S)-4-(7-(5-cyano-1-methyl-1H-pyrazol-3-yl)-5-cyclopropyl-7H-pyrrolo[2,3-d]pyrimidin-4-yl)-3-methylpiperazine-1-carboxylate]	0.1 to 0.5 µM	< 0.1 µM	0.1 to 0.5 µM			
C[C@@H]1CN(c2ncnc3c2c(C2CC2)cn3-c2cc(Cl)ccc2F)CCN1C(=O)OC(C)(C)C [Compound 224, tert-butyl (R)-4-(7-(5-chloro-2-fluorophenyl)-5-cyclopropyl-7H-pyrrolo[2,3-d]pyrimidin-4-yl)-2-methylpiperazine-1-carboxylate]	0.1 to 0.5 µM	< 0.1 µM	< 0.1 µM			
